Test results as given in patent US20240246908A1 (ORION CORPORATION, priority 2021, published 2024).

System: YAP-TEAD
Test: TEAD inhibition, Hippo Pathway TEAD Reporter MCF-7 luciferase assay
Assay type: cell-based
Conditions: Homo sapiens, MCF7, 24 h, Hippo Pathway TEAD Reporter MCF-7 cells, luciferase activity after 24 h; read-out: IC50 of the test compounds on YAP-TEAD inhibition (Group)
Summary of the method: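 IC50 derived from ONE-Glo luciferase luminescence after 24 h compound exposure (11 concentrations in quadruplicate, 0.1% DMSO control). Reporter: MCF-7 line expressing firefly luciferase under TEAD elements, constitutively activated by nuclear YAP1.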

| Compound | IC50 [µM] |
| --- | --- |
| COc1ccc(COc2ccc(F)c(F)c2)cc1NC(=O)C1CCC(=O)N1C (centres unmarked) [Compound 95, N-(5-((3,4-Difluorophenoxy)methyl)-2-methoxyphenyl)-1-methyl-5-oxo-pyrrolidine-2-carboxamide] | 0.05 to 0.3 |
| COc1ccc(OC2CC3CCC2C3)cc1NC(=O)C1CCC(=O)N1C (centres unmarked) [Compound 96, N-(5-(Bicyclo[2.2.1]heptan-2-yloxy)-2-methoxyphenyl)-1-methyl-5-oxo-pyrrolidine-2-carboxamide] | 0.05 to 0.3 |
| CN1C(=O)CC[C@H]1C(=O)Nc1cc(Oc2ccc(F)c(F)c2)cc2c1OCCO2 [Compound 98, (S)—N-(7-(3,4-Difluorophenoxy)-2,3-dihydrobenzo[b][1,4]dioxin-5-yl)-1-methyl-5-oxopyrrolidine-2-carboxamide] | 0.05 to 0.3 |
| COc1ccc(OC2CCC(F)(F)CC2)cc1NC(=O)C1COC(=O)N1C (centres unmarked) [Compound 104, N-(5-((4,4-Difluorocyclohexyl)oxy)-2-methoxyphenyl)-3-methyl-2-oxo-oxazolidine-4-carboxamide] | 0.05 to 0.3 |
| CN1C(=O)CCC1C(=O)Nc1cc(Oc2cccc(C(F)(F)F)c2)cc2c1NC(=O)CO2 (centres unmarked) [Compound 106, 1-Methyl-5-oxo-N-(3-oxo-7-(3-(trifluoromethyl)phenoxy)-3,4-dihydro-2H-benzo[b][1,4]oxazin-5-yl)pyrrolidine-2-carboxamide] | 0.301 to 2 |
| CN1C(=O)CC[C@@H]1C(=O)Nc1cc(O[C@H]2CC[C@@H](C(F)(F)F)CC2)cc2c1OCC2 [Compound 108, (R)-1-Methyl-5-oxo-N-(5-(((cis)-4-(trifluoromethyl)cyclohexyl)oxy)-2,3-dihydrobenzofuran-7-yl)pyrrolidine-2-carboxamide] | 0.05 to 0.3 |
| COc1ccc(Oc2ccc(F)c(F)c2)cc1NC(=O)C1CCC(=O)N1C1CC1 (centres unmarked) [Compound 111, 1-Cyclopropyl-N-(5-(3,4-difluorophenoxy)-2-methoxyphenyl)-5-oxopyrrolidine-2-carboxamide] | 0.05 to 0.3 |
| COc1ccc(Oc2ccc(OC(F)(F)F)cn2)cc1NC(=O)C1COC(=O)N1C (centres unmarked) [Compound 112, N-(2-Methoxy-5-((5-(trifluoromethoxy)pyridin-2-yl)oxy)phenyl)-3-methyl-2-oxooxazolidine-4-carboxamide] | 0.05 to 0.3 |
| CN1C(=O)CCC1C(=O)Nc1cc(COC2CCC(F)(F)CC2)cc2c1OCCO2 (centres unmarked) [Compound 113, N-(7-(((4,4-Difluorocyclohexyl)oxy)methyl)-2,3-dihydrobenzo[b][1,4]dioxin-5-yl)-1-methyl-5-oxopyrrolidine-2-carboxamide] | 0.301 to 2 |
| COc1ccc(Oc2ccc(OC(F)(F)F)cn2)cc1NC(=O)C1CCC(=O)N1C (centres unmarked) [Compound 115, N-(2-Methoxy-5-((5-(trifluoromethoxy)pyridin-2-yl)oxy)phenyl)-1-methyl-5-oxopyrrolidine-2-carboxamide] | 0.05 to 0.3 |
| COc1ccc(Oc2ccc(C(F)(F)F)cc2)cc1NC(=O)C1CCS(=O)(=O)C1 (centres unmarked) [Compound 116, N-(2-Methoxy-5-(4-(trifluoromethyl)phenoxy)phenyl)tetrahydrothiophene-3-carboxamide 1,1-dioxide] | 0.05 to 0.3 |
| COc1ccc(Oc2ccc(C(F)(F)F)cc2)cc1NC(=O)[C@@H]1CCC(=O)NC1 [Compound 120, (R)—N-(2-Methoxy-5-(4-(trifluoromethyl)phenoxy)phenyl)-6-oxopiperidine-3-carboxamide] | 0.301 to 2 |
| COc1ccc(Oc2ccc(C(F)(F)F)cc2)cc1NC(=O)C1(C)CCC(=O)NC1 (centres unmarked) [Compound 121, N-(2-Methoxy-5-(4-(trifluoromethyl)phenoxy)phenyl)-3-methyl-6-oxo-piperidine-3-carboxamide] | 0.301 to 2 |
| COc1ccc(Oc2ccc(C(F)(F)F)cc2)cc1NC(=O)c1ccc(=O)[nH]c1 [Compound 122, N-(2-Methoxy-5-(4-(trifluoromethyl)phenoxy)phenyl)-6-oxo-1,6-dihydro-pyridine-3-carboxamide] | 0.301 to 2 |
| COc1ccc(Oc2ccc(C(F)(F)F)cn2)cc1NC(=O)C1(C)CNC(=O)N1C (centres unmarked) [Compound 123, N-(2-Methoxy-5-((5-(trifluoromethyl)pyridin-2-yl)oxy)phenyl)-3,4-dimethyl-2-oxoimidazolidine-4-carboxamide] | 0.301 to 2 |
| COc1ccc(Oc2ccc(C(F)(F)F)cn2)cc1NC(=O)[C@H]1CNC(=O)N1C [Compound 124, (R)—N-(2-Methoxy-5-((5-(trifluoromethyl)pyridin-2-yl)oxy)phenyl)-3-methyl-2-oxoimidazolidine-4-carboxamide] | 0.301 to 2 |
| COc1ccc(Oc2ccc(C(F)(F)F)cn2)cc1NC(=O)[C@@H]1COC(=O)N1C [Compound 125, (S)—N-(2-Methoxy-5-((5-(trifluoromethyl)pyridin-2-yl)oxy)phenyl)-3-methyl-2-oxooxazolidine-4-carboxamide] | 0.05 to 0.3 |
| COc1ccc(Oc2ccc(C(F)(F)F)cn2)cc1NC(=O)[C@H]1COC(=O)N1C [Compound 126, (R)—N-(2-Methoxy-5-((5-(trifluoromethyl)pyridin-2-yl)oxy)phenyl)-3-methyl-2-oxooxazolidine-4-carboxamide] | 0.05 to 0.3 |
| CCN1C(=O)NCC1C(=O)Nc1cc(Oc2ccc(C(F)(F)F)cn2)ccc1OC (centres unmarked) [Compound 127, 3-Ethyl-N-(2-methoxy-5-((5-(trifluoromethyl)pyridin-2-yl)oxy)phenyl)-2-oxo-imidazolidine-4-carboxamide] | 0.05 to 0.3 |

Continued, values first:

| IC50 [µM] | Compound |
| --- | --- |
| 0.05 to 0.3 | COc1ccc(Oc2ccc(F)c(F)c2)cc1NC(=O)[C@@H]1CCC(=O)N1C [Compound 94, (S)—N-(5-(3,4-Difluorophenoxy)-2-methoxyphenyl)-1-methyl-5-oxopyrrolidine-2-carboxamide] |
| < 0.05 | CN1C(=O)CC[C@@H]1C(=O)Nc1cc(Oc2ccc(F)c(F)c2)cc2c1OCCO2 [Compound 97, (R)—N-(7-(3,4-Difluorophenoxy)-2,3-dihydrobenzo[b][1,4]dioxin-5-yl)-1-methyl-5-oxopyrrolidine-2-carboxamide] |
| < 0.05 | CN1C(=O)CC[C@@H]1C(=O)Nc1cc(Oc2ccc(C(F)(F)F)cc2)cc2c1OCC2 [Compound 99, (R)-1-Methyl-5-oxo-N-(5-(4-(trifluoromethyl)phenoxy)-2,3-dihydrobenzofuran-7-yl)pyrrolidine-2-carboxamide] |
| < 0.05 | CN1C(=O)CC[C@H]1C(=O)Nc1cc(Oc2ccc(F)c(F)c2)cc2c1OCC2 [Compound 100, (S)—N-(5-(3,4-Difluorophenoxy)-2,3-dihydrobenzofuran-7-yl)-1-methyl-5-oxopyrrolidine-2-carboxamide] |
| < 0.05 | COc1ccc(Oc2ccc(C(F)(F)F)cc2)cc1NC(=O)[C@H]1COC(=O)N1C [Compound 101, (R)—N-(2-Methoxy-5-(4-(trifluoromethyl)phenoxy)phenyl)-3-methyl-2-oxooxazolidine-4-carboxamide] |
| < 0.05 | COc1ccc(Oc2ccc(C(F)(F)F)cc2)cc1NC(=O)[C@@H]1COC(=O)N1C [Compound 102, (S)—N-(2-Methoxy-5-(4-(trifluoromethyl)phenoxy)phenyl)-3-methyl-2-oxooxazolidine-4-carboxamide] |
| < 0.05 | COc1ccc(O[C@H]2CC[C@H](C(F)(F)F)CC2)cc1NC(=O)[C@H]1CCC(=O)N1C [Compound 103, (R)—N-(2-Methoxy-5-(((trans)-4-(trifluoromethyl)cyclohexyl)oxy)phenyl)-1-methyl-5-oxopyrrolidine-2-carboxamide] |
| < 0.05 | COc1ccc(O[C@H]2CC[C@H](C(F)(F)F)CC2)cc1NC(=O)[C@@H]1CCC(=O)N1C [Compound 105, (S)—N-(2-Methoxy-5-(((trans)-4-(trifluoromethyl)cyclohexyl)oxy)phenyl)-1-methyl-5-oxopyrrolidine-2-carboxamide] |
| < 0.05 | CN1C(=O)CC[C@H]1C(=O)Nc1cc(O[C@H]2CC[C@@H](C(F)(F)F)CC2)cc2c1OCC2 [Compound 107, (S)-1-Methyl-5-oxo-N-(5-(((cis)-4-(trifluoromethyl)cyclohexyl)oxy)-2,3-dihydrobenzofuran-7-yl)pyrrolidine-2-carboxamide] |
| < 0.05 | O=C(Nc1cc(Oc2ccc(C(F)(F)F)cc2)cc2c1OCC2)C1CCC(=O)N1C1CC1 (centres unmarked) [Compound 109, 1-Cyclopropyl-5-oxo-N-(5-(4-(trifluoromethyl)phenoxy)-2,3-dihydro-benzofuran-7-yl)pyrrolidine-2-carboxamide] |
| < 0.05 | COc1ccc(Oc2ccc(C(F)(F)F)cc2)cc1NC(=O)C1CCC(=O)N1C1CC1 (centres unmarked) [Compound 110, 1-Cyclopropyl-N-(2-methoxy-5-(4-(trifluoromethyl)phenoxy)phenyl)-5-oxo-pyrrolidine-2-carboxamide] |
| < 0.05 | O=C(Nc1cc(Oc2ccc(C(F)(F)F)cc2)cc2c1OCCO2)C1CCC(=O)N1C1CC1 (centres unmarked) [Compound 114, 1-Cyclopropyl-5-oxo-N-(7-(4-(trifluoromethyl)phenoxy)-2,3-dihydrobenzo[b][1,4]dioxin-5-yl)pyrrolidine-2-carboxamide] |
| < 0.05 | COc1ccc(Oc2ccc(C(F)(F)F)cc2)cc1NC(=O)C1CNC(=O)N1C (centres unmarked) [Compound 117, N-(2-Methoxy-5-(4-(trifluoromethyl)phenoxy)phenyl)-3-methyl-2-oxo-imidazolidine-4-carboxamide] |
| < 0.05 | COc1ccc(Oc2ccc(C(F)(F)F)cn2)cc1NC(=O)C1CNC(=O)N1C (centres unmarked) [Compound 118, N-(2-Methoxy-5-((5-(trifluoromethyl)pyridin-2-yl)oxy)phenyl)-3-methyl-2-oxoimidazolidine-4-carboxamide] |
| < 0.05 | COc1ccc(Oc2ccc(C(F)(F)F)cc2)cc1NC(=O)[C@H]1CCC(=O)NC1 [Compound 119, (S)—N-(2-Methoxy-5-(4-(trifluoromethyl)phenoxy)phenyl)-6-oxopiperidine-3-carboxamide] |
| < 0.05 | COc1ccc(Oc2ccc(C(F)(F)F)cn2)cc1NC(=O)[C@H]1CCC(=O)N1C1CC1 [Compound 128, (R)-1-Cyclopropyl-N-(2-methoxy-5-((5-(trifluoromethyl)pyridin-2-yl)oxy)-phenyl)-5-oxopyrrolidine-2-carboxamide] |
